The record followed here is paper PMC7215574, “Development of Thiazolidinones as Fungal Carbonic Anhydrase Inhibitors” (International Journal of Molecular Sciences, 2020).

For assay [1], the system named is T1, Candida sake C. sakè 3 strains.
T1 construct: 3 clinical isolates
In words: microbe, parasite or virus in culture. The arrangement: species or system clinical Candida isolates; CLSI broth microdilution MIC, Sabouraud dextrose broth, 35 °C, visual complete growth inhibition. The note with it: Fermentozyma sake, 24 h. As for the experimental part:
(§1) The in vitro antifungal activities were determined by the broth microdilution method with sabouraud dextrose broth (BBL Microbiology Systems, Cockeysville, MD, USA), as recommended by the by the CLSI [43]. Ninety-six-well polystyrene microtitre plates containing serial dilutions of each compound were inoculated with each microorganism to yield the appropriate density (1–5 × 10^3 cells/mL) in a 100-μL final volume. Each plate included (i) fungi without the addition of the compound, (ii) just the medium, and (iii) just the compound. Topical and systemic antifungal reference drugs, clotrimazole and fluconazole, were inserted in the experiment. The plates were incubated for 24 h at 35 °C. […] Three independent experiments were performed in triplicate. The antimicrobial activity of these thiazolidinones was evaluated versus 24 clinical Gram-positive (S. aureus and S. epidermidis) and Gram-negative (E. coli and Enterobacter spp.) microorganisms. The antifungal activity of these derivatives was then tested versus 16 clinical fungal isolates belonging to the most relevant Candida spp. (C. albicans, C. tropicalis, C. parapsilosis, C. sakè, and C. glabrata). Prior to testing, each isolate was cultured on a selective medium to ensure purity and optimal growth, as previously reported. The isolates were routinely identified by the morphological aspects of colonies and by biochemical identification. The used clinical isolates were collected from specimens of patients at the ‘Azienda Policlinico Umberto I’ (Sapienza University of Rome) and were obtained from hematology/oncology and surgery departments, which also included an intensive care unit. In particular, the samples were isolated from the upper and lower respiratory tract, blood, and indwelling venous catheters; the isolates were identified by conventional methodologies. Participating subjects gave their written informed consent for this study.

In assay [2] the test system is T2, C. albicans 5 strains.
T2 construct: 5 clinical isolates
Description: microbe, parasite or virus in culture. The conditions noted are these: Candida albicans, 24 h, read-out: Tested Fungi (MIC Values μg/mL) / C. albicans 5 strains / 8–32 / 32–128. The arrangement: species or system clinical Candida isolates; CLSI broth microdilution MIC, Sabouraud dextrose broth, 35 °C, visual complete growth inhibition. As for the experimental part: as §1

The test system of assay [3] is T3, C. parapsilosis 2 strains.
T3 construct: 2 clinical isolates
In words: microbe, parasite or virus in culture. The note with it: Lodderomyces parapsilosis, 24 h, read-out: Tested Fungi (MIC Values μg/mL) / C. parapsilosis 2 strains. Also on record: species or system clinical Candida isolates; CLSI broth microdilution MIC, Sabouraud dextrose broth, 35 °C, visual complete growth inhibition. As for the experimental part: as §1

Assay [4] deals with T4, C. tropicalis 3 strains.
T4 construct: 3 clinical isolates
Description: microbe, parasite or virus in culture. The conditions noted are these: Candida tropicalis, 24 h, read-out: Tested Fungi (MIC Values μg/mL) / C. tropicalis 3 strains. Also on record: species or system clinical Candida isolates; CLSI broth microdilution MIC, Sabouraud dextrose broth, 35 °C, visual complete growth inhibition. As for the experimental part: as §1

Assay [5] has as its system T5, C. glabrata 3 strains.
T5 construct: 3 clinical isolates
In words: microbe, parasite or virus in culture. The note with it: Nakaseomyces glabratus, 24 h. The arrangement: species or system clinical Candida isolates; CLSI broth microdilution MIC, Sabouraud dextrose broth, 35 °C, visual complete growth inhibition. The protocol: as §1

For the next assay, the target named is T6, hCA II (Homo sapiens, UniProt P00918).
T6 construct: gene CA2; recombinant, obtained in-house as previously reported
In words: stopped-flow CO2 hydrase assay. It counts as biochemical. The source says: stopped-flow CO2 hydrase assay on hCA II

For assay [6], the system named is T1, Candida sake C. sakè 3 strains. In words: microbe, parasite or virus in culture. Also on record: species or system clinical Candida isolates; broth microdilution antifungal MIC, visual growth inhibition, CLSI. The conditions noted are these: Fermentozyma sake, 24 h; read-out: Tested Fungi (MIC Values μg/mL) / C. sakè 3 strains. The protocol:
as §1

Assay [7] deals with T2, C. albicans 5 strains. Description: microbe, parasite or virus in culture. Also on record: species or system clinical Candida isolates; broth microdilution antifungal MIC, visual growth inhibition, CLSI. The note with it: Candida albicans, 24 h, read-out: Tested Fungi (MIC Values μg/mL) / C. albicans 5 strains. As for the experimental part:
as §1

Assay [8] concerns T5, C. glabrata 3 strains. Description: microbe, parasite or virus in culture. The conditions noted are these: Nakaseomyces glabratus, 24 h, read-out: Tested Fungi (MIC Values μg/mL) / C. glabrata 3 strains. The arrangement: species or system clinical Candida isolates; broth microdilution antifungal MIC, visual growth inhibition, CLSI. As for the experimental part: as §1
Another assay concerns the target T7, CgNce103 (Nakaseomyces glabratus, UniProt Q6FTL6).
T7 construct: gene NCE103; recombinant, obtained in-house as previously reported; beta-class zinc enzyme
T7 sequence (Q6FTL6 1-219): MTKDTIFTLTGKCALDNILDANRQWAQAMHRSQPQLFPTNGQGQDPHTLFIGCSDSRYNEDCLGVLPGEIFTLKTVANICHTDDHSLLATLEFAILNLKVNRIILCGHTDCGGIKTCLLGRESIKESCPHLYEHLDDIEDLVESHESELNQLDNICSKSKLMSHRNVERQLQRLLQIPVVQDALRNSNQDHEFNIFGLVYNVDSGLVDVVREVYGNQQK
In words: stopped-flow CO2 hydrase assay. It counts as biochemical.

Another assay has as its target T8, hCA I (Homo sapiens, UniProt P00915).
T8 construct: gene CA1; recombinant, obtained in-house as previously reported
Description: stopped-flow CO2 hydrase assay. The format is biochemical. The source says: stopped-flow CO2 hydrase assay on hCA I

The test system of assay [9] is T4, C. tropicalis 3 strains. Description: microbe, parasite or virus in culture. Also on record: species or system clinical Candida isolates; broth microdilution antifungal MIC, visual growth inhibition, CLSI. The note with it: Candida tropicalis, 24 h, read-out: Tested Fungi (MIC Values μg/mL) / C. tropicalis 3 strains. As for the experimental part: as §1
A short description of assay [10]: stopped-flow CO2 hydrase assay. The format is biochemical, Homo sapiens. The conditions noted are these: read-out: hCA I.
Setting [11] is: read-out: Tested Fungi (MIC Values μg/mL) / C. sakè 3 strains.

Converted amounts (≈) assume the structure as drawn. Read-outs that look alike come from different tables or passages of the source.

T8 sequence (P00915 2-261): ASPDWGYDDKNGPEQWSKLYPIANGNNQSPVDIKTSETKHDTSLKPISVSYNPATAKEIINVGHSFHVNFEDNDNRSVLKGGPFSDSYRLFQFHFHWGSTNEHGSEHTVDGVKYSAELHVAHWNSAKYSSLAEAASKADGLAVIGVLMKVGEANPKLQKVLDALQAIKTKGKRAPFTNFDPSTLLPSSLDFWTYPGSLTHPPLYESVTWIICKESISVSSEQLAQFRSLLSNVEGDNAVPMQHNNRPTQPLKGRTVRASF

As to `Clc1ccccc1C(c1ccccc1)(c1ccccc1)n1ccnc1` [Clotrimazole], the MIC (in assay [1] (read-out: Tested Fungi (MIC Values μg/mL) / C. sakè 3 strains / 8–32); in the assay on C. albicans 5 strains [2]; in assay [3]; with C. tropicalis 3 strains [4]; with C. glabrata 3 strains [5] (read-out: Tested Fungi (MIC Values μg/mL) / C. glabrata 3 strains / 8–32)) was 2 µg/mL (≈ 5.8 µM) throughout.
Consider `Cc1cccc(N2C(=O)CS/C2=N\NC(=O)C(O)c2ccccc2)c1` (stereo not shown) [3k], for which the Ki at hCA II was 79.3 µM; on CgNce103, 0.41 µM; at hCA I, > 100 µM. Further, the MIC in assay [6] is 8 to 32 µg/mL (≈ 22.5 to 90 µM); in the assay with C. albicans 5 strains [7] it was 8 to 32 µg/mL (≈ 22.5 to 90 µM); in the assay on C. glabrata 3 strains [8], 8 to 32 µg/mL (≈ 22.5 to 90 µM); in assay [3] it was 16 µg/mL (≈ 45 µM); with C. tropicalis 3 strains [4], 32 µg/mL (≈ 90 µM).
On to `O=C(N/N=C1\SCC(=O)N1c1ccc(F)cc1)C(O)c1ccccc1` (stereo not shown) [3c], for which the Ki at hCA II is 76.7 µM; on CgNce103 it was 0.38 µM; at hCA I it was > 100 µM. The MIC was 4 to 8 µg/mL (≈ 11.1 to 22.3 µM) in the assay on C. albicans 5 strains [7]; 16 µg/mL (≈ 44.5 µM) in assay [1] (setting [11]); 32 µg/mL (≈ 89 µM) in assay [3]; 32 µg/mL (≈ 89 µM) with C. tropicalis 3 strains [4]; 16 µg/mL (≈ 44.5 µM) with C. glabrata 3 strains [5] (read-out: Tested Fungi (MIC Values μg/mL) / C. glabrata 3 strains).
Turning to `O=C(N/N=C1\SCC(=O)N1c1ccc(Br)cc1)C(O)c1ccccc1` (stereo not shown) [3i], the Ki on hCA II was 47.4 µM; at CgNce103, 0.87 µM; at hCA I it was > 100 µM. The MIC is 8 to 16 µg/mL (≈ 19 to 38.1 µM) in the assay with C. albicans 5 strains [7]; 4 to 8 µg/mL (≈ 9.52 to 19 µM) with C. glabrata 3 strains [8]; 16 µg/mL (≈ 38.1 µM) in [1] (setting [11]); 16 µg/mL (≈ 38.1 µM) in assay [3]; 16 µg/mL (≈ 38.1 µM) in the assay on C. tropicalis 3 strains [4].
For the compound `O=C(N/N=C1\SCC(=O)N1c1ccccc1Br)C(O)c1ccccc1` (stereo not shown) [3g], the MIC in the assay on C. albicans 5 strains [7] is 8 to 16 µg/mL (≈ 19 to 38.1 µM); in the assay with C. tropicalis 3 strains [9], 8 to 32 µg/mL (≈ 19 to 76.1 µM); in the assay on C. glabrata 3 strains [8] it was 8 to 32 µg/mL (≈ 19 to 76.1 µM); in assay [1] (setting [11]), 16 µg/mL (≈ 38.1 µM); in assay [3] it was 8 µg/mL (≈ 19 µM). In addition, the Ki is 10.2 µM on CgNce103, > 100 µM at hCA I and > 100 µM in assay [10].
As for `O=C(N/N=C1\SCC(=O)N1c1cccc(C(F)(F)F)c1)C(O)c1ccccc1` (stereo not shown) [3o], the Ki on hCA II is 82.8 µM; at CgNce103, 0.12 µM; at hCA I it was > 100 µM. The MIC was 4 to 8 µg/mL (≈ 9.77 to 19.5 µM) in assay [6]; 16 to 32 µg/mL (≈ 39.1 to 78.2 µM) in the assay on C. albicans 5 strains [7]; 4 to 8 µg/mL (≈ 9.77 to 19.5 µM) in the assay on C. glabrata 3 strains [8]; 32 µg/mL (≈ 78.2 µM) in assay [3]; 32 µg/mL (≈ 78.2 µM) in the assay on C. tropicalis 3 strains [4].
For `CC1S/C(=N\NC(=O)C(O)c2ccccc2)N(c2cccc(Cl)c2)C1=O` (stereo not shown) [4c], the MIC in [6] is 4 to 8 µg/mL (≈ 10.3 to 20.5 µM); in the assay with C. albicans 5 strains [7], 16 to 32 µg/mL (≈ 41 to 82.1 µM); in the assay with C. tropicalis 3 strains [9] it was 8 to 32 µg/mL (≈ 20.5 to 82.1 µM); in the assay on C. glabrata 3 strains [8] it was 8 to 32 µg/mL (≈ 20.5 to 82.1 µM); in assay [3], 8 µg/mL (≈ 20.5 µM). Further, the Ki on CgNce103 is 0.12 µM; at hCA I it was > 100 µM; in assay [10], > 100 µM.
On to `CC1S/C(=N\NC(=O)C(O)c2ccccc2)N(c2cccc(Br)c2)C1=O` (stereo not shown) [4e], for which the Ki at hCA II was 68.2 µM; at CgNce103, 0.56 µM; at hCA I, > 100 µM. Also, the MIC in assay [6] was 4 to 8 µg/mL (≈ 9.21 to 18.4 µM); with C. albicans 5 strains [7], 4 to 16 µg/mL (≈ 9.21 to 36.8 µM); in the assay with C. tropicalis 3 strains [9], 4 to 8 µg/mL (≈ 9.21 to 18.4 µM); in the assay with C. glabrata 3 strains [8] it was 4 to 8 µg/mL (≈ 9.21 to 18.4 µM); in assay [3], 32 µg/mL (≈ 73.7 µM).
